Assays:
[1] = tested on: Lb. paracasei E3.1 harboring the empty vector; experiment: Growth of Lb. paracasei E3.1 (empty vector) in MRS with nisin, OD600; format: cell-based, Lactobacillus paracasei; settings: MRS supplemented with 500 ppm of nisin; empty vector strain; FIG. 1
Experimental: (§1) Resulting Lb. paracasei strains (±the nisin resistance construct) were grown in MRS (no nisin) and MRS supplemented with 500 ppm of nisin. The OD600 was monitored. When nisin was absent from the media both strains grew identically, indicating no deleterious effect of NisIEFG expression (FIG. 1).

[2] = tested on: Lb. paracasei E3.1 expressing pDW2-P5-nisIEFG; experiment: Growth of Lb. paracasei E3.1 expressing the nisin autoimmunity construct in MRS with nisin, OD600; format: cell-based, Lactobacillus paracasei; settings: MRS supplemented with 500 ppm of nisin; strain expressing pDW2-P5-nisIEFG; FIG. 1
Experimental: as §1

In the case of nisin, the “growth (OD600) in the presence of nisin” value [1] was “completely inhibited” and the “growth rate (OD600) in the presence of nisin” value [2] was “only a minimal decrease in growth rate”.

Reference: patent US11999987B2, “Bacterial cocultures expressing a bacteriocin system” (Lallemand Hungary Liquidity Management LLC, priority 2020, dated 2024)
